From patent US6011019A, “Vasoactive effects and free radical generation by β-amyloid peptides” (University of South Florida, priority 1996, dated 2000)

Key:
[1] = tested on: endothelial cell layer in rat coronary artery; assay: Electron microscopy of endothelial cell layer in rat coronary artery; conditions: β-amyloid thirty minutes at 10^-6 M
Procedure: The physiological effects of β-amyloid treatment on the coronary artery with and without pretreatment with SOD is shown in FIG. 7A-C. FIG. 7A-C are electron micrographs showing the endothelial cell layer in rat coronary artery. […] The tissue samples were kept in glutaraldehyde solution at 4° C. until processed and then rinsed with cacodylate buffer. The tissues were post-fixed with 1% buffered osmium tetroxide, dehydrated with grated ethanol solutions, and embedded in a mixture of eponaraldite. Ultra thin sections were stained with uranyl acetate and lead citrate and viewed on a model 7,000 Hitachi transmission electron microscope. The inset bar indicates two microns. The experiment was repeated three or more times with blood vessels from different animals. FIG. 7A is a control coronary artery and depicts normal endothelial cells closely adhering to the intimal elastic lamina lining of the lumen. […] FIG. 7C depicts a rat coronary artery pretreated with SOD (150 units/ml, for thirty seconds prior to the addition of β-amyloid).

[2] = tested on: blood vessel (rat aorta); assay: Vascular response of blood vessel rings in tissue bath (basal tension, β-amyloid induced vasoactivity)
Procedure: Freshly excised rat and porcine blood vessels were placed in Kreb's bicarbonate buffer equilibrated with 5% CO2 in O2. The buffer composition consisted of 118.2 mM NaCl, 4.7 mM KCl, 1.2 mM MgSO4, 2.5 mM CaCl2, 1.2 mM NaH2 PO4, 23 mM NaHCO3 and 11.2 mM glucose. After cleaning the vessels free of fat and other adhering tissues, the vessels were cut into ring segments of approximately 3 mm in length. Care was taken not to damage the intimal surface.
The endothelium was removed from some preparations by rubbing the inside of the lumen with a metal spatula for six to ten seconds and subsequent rinsing with buffer. The removal of endothelium was confirmed by testing for relaxation to acetylcholine [Furchgott and Zawadzki, 1980].
The blood vessel preparations were mounted on stainless steel hooks attached to a force-displacement transducer and equilibrated under the optimum tension of 1.3 g for a period of sixty minutes in a tissue bath (10 ml) containing oxygenated (5% CO2 in O2) Kreb's buffer at 37° C. The buffer was changed every fifteen minutes. After equilibration for sixty minutes the viability of the blood vessel with intact endothelium was established by constricting the blood vessel using phenylephrine ([…]). This dose of phenylephrine elicited 80% of the maximum response. […] The vessel preparations were washed for fifteen minutes before various manipulations as described below.
Referring to FIG. 10, the arrow indicates the addition of 10^-6 M β-amyloid. The control tissue received no β-amyloid. SOD (150 units/ml) was added thirty seconds prior to the addition of β-amyloid. The maximum contraction induced by β-amyloid was 1.14±0.13 (g) and in presence of SOD the contraction was reduced to 0.04±0.02 (g). Values represent the mean±SEM of five separate experiments.

β-amyloid was tested, and the “endothelial layer morphology in rat coronary artery” value [1] was “Derangement of the endothelial layer, condensed nucleus, separation from the intimal elastic lamina, and areas of denuded internal elastic lamina”, the “maximum contraction induced by β-amyloid” value ([2]; 10^-6 M β-amyloid, mean±SEM of five experiments) was 1.14 ± 0.13 g and the “duration of contraction/relaxation activity” value ([2]; after β-amyloid addition) was “fifteen to twenty minutes”. For the same substance, the “initial detectable change: minor relaxation” value ([2]; after β-amyloid addition) was < 0.1 g, the onset of vasoactivity ([2]; after β-amyloid addition) was “within thirty seconds” and the “constriction of the blood vessel” value ([2]; increasing concentration of β-amyloid, basal tension, intact endothelium) was “constricted the blood vessel in a concentration-dependent manner”. The “endothelium dependence of the constricting effect” value ([2]; vessels with and without endothelium) was “only occurred in the presence of endothelium”.
